Results published in patent US6727241B2, “Anti-inflammatory compositions and methods of use” (Chemocentryx, priority 2002, dated 2004).
Read-outs that look alike come from different tables or passages of the source.

Assays:
[1] = system: bradykinin-induced calcium signaling; assay: Calcium mobilization in response to bradykinin (specificity control); assay type: cell-based, human; set-up: key: +: pulse observed; −: no pulse observed; n.s.: non-specific signal; conditions: CCR1-293 or THP-1 cells loaded with INDO-1; compound 10 to 20 μM; bradykinin added after MIP-1α
Description: (§1) To detect the release of intracellular stores of calcium, cultured cells were incubated with 3 μM of INDO-1AM dye (Molecular Probes; Eugene, Oreg.) in cell media for 45 minutes at room temperature and washed with phosphate buffered saline (PBS). After INDO-1AM loading, the cells were resuspended in flux buffer (Hank's balanced salt solution (HBSS) and 1% FBS). Calcium mobilization was measured using a Photon Technology International spectrophotometer (Photon Technology International; New Jersey) with excitation at 350 nm and dual simultaneous recording of fluorescence emission at 400 nm and 490 nm. Relative intracellular calcium levels were expressed as the 400 nm/490 nm emission ratio. Experiments were performed at 37° C. with constant mixing in cuvettes each containing 10^6 cells in 2 ml of flux buffer. The chemokine ligands may be used over a range from 1 to 100 nM. The emission ratio was plotted over time (typically 2-3 minutes). Candidate ligand blocking compounds (10 to 20 μM) were added at 10 seconds, followed by chemokines at 60 seconds (MIP-1α; R&D Systems; Minneapolis, Minn.) and control […] (bradykinin; ICN Pharmaceutical, Costa Mesa, Calif.) at 150 seconds. In some experiments, candidate blocking compounds and cells were added simultaneously, and MIP-1α was added 40 seconds later.
(§2) Calcium ion release in response to MIP-1α binding was measured using the cell permeable INDO-1/AM indicator, which fluoresces in the presence of free, but not chelated, calcium ions. CCR1-293 or THP-1 cells were loaded with INDO-1 and assayed for calcium release in response to MIP-1α addition. To control for specificity, a second, non-CCR1 binding […], bradykinin, was added, which also signals via a seven transmembrane receptor. Without compound, a pulse of fluorescent signal will be seen upon MIP-1α addition.

CCR1 [2] = target: T1, CCR1 (Homo sapiens, UniProt P32246); assay: Calcium mobilization in response to MIP-1α (INDO-1); assay type: cell-based; set-up: expressed in transfected cells; host or cells: HEK 293 (CCR1-293), pIRESpuro vector; key to MIP-1α: calcium pulse: +: pulse observed; −: no pulse observed; n.s.: non-specific signal; conditions: for MIP-1α: calcium pulse: CCR1-293 or THP-1 cells loaded with INDO-1, compound 10 to 20 μM added before MIP-1α; for Comments (inhibition of calcium signaling) / Inhibition of CCR1 calcium signaling, result in words: Table 2; for Inhibition of CCR1 calcium signaling, result in words: MIP-1α versus bradykinin
T1 sequence (P32246 1-355): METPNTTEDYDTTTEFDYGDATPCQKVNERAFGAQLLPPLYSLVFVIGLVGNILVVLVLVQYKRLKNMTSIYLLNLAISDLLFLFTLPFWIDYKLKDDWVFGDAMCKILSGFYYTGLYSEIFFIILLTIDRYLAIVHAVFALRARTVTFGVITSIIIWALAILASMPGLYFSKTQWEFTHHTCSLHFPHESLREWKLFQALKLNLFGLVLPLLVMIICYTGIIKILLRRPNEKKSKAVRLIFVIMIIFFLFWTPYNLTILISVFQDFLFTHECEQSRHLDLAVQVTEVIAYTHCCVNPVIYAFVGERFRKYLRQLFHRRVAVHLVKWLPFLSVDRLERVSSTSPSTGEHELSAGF
Description: as §1
CCR1 is a seven transmembrane, G-protein linked receptor. A hallmark of signaling cascades induced by the ligation of such receptors is the pulse-like release of calcium ions from intracellular stores. Calcium mobilization assays were performed to determine if the candidate MIP-1α inhibitory compounds were able to also block CCR1 signaling. To be useful, candidate compounds able to inhibit specifically ligand binding and signaling were desired.
as §2

CCR1 [3] = target: T1, CCR1; assay: Inhibition of CCR1 ligand binding (125I labeled MIP-1α binding to CCR1 expressing cells); set-up: expressed in transfected cells; host or cells: NSO murine myeloma (CCR1-NSO) or HEK 293 (CCR1-293)
Description: CCR1 expressing cells were centrifuged and resuspended in assay buffer (20 mM HEPES pH 7.1, 140 mM NaCl, 1 mM CaCl2, 5 mM MgCl2, and with 0.2% bovine serum albumin) to a concentration of 5.6×10^6 cells/ml (CCR1-NSO) or 2.2×10^6 cells/ml ([…].). Screening assays were set up as follows. First, 0.09 ml of cells (5×10^5 CCR1-NSO cells/well or 2×10^5 CCR1-293 cells/well) was added to the assay plates containing the compounds, giving a final concentration of ˜2-10 μM each compound. Then 0.09 ml of ^125I labeled MIP-1α (obtained from Amersham; Piscataway, N.J.) diluted in assay buffer to a final concentration of ˜50 pM, yielding ˜30,000 cpm per well, was added, the plates sealed and incubated for approximately 3 hours at 4° C. on a shaker platform. Reactions were aspirated onto GF/B glass filters pre-soaked in 0.3% polyethyleneimmine (PEI) solution, on a vacuum cell harvester (Packard Instruments; Meriden, Conn.). Scintillation fluid (50 μl; Microscint 20, Packard Instruments) was added to each well, the plates were sealed and radioactivity measured in a Top Count scintillation counter (Packard Instruments). Control wells containing either diluent only (for total counts) or excess MIP-1α or MIP-1β ([…], for non-specific binding) were used to calculate the percent of total inhibition for each set of compounds. After testing the CLIP plates, wells with 40% or greater inhibition were confirmed. If confirmed, the individual compounds of the CLIP's were tested for reactivity (deconvolution step). IC50 values are those concentrations required to reduce the binding of labeled MIP-1α to the receptor by 50%.
To identify small organic molecules that prevent the receptor CCR1 from binding ligand, an assay was employed that detected radioactive ligand (MIP-1α) binding to cells expressing exogenous CCR1 on the cell surface.
A NSO murine myeloma cell line (CCR1-NSO) and a human embryonic kidney (HEK) carcinoma cell line (CCR1-293) were constructed that constitutively expressed human CCR1 on the cell surface; these cells lack other chemokine receptors that bind MIP-1α. Equal numbers of cells were added to each well in the CLIP plate, where each pool contained 10 candidate organic compounds. The cells were then incubated with radio labeled MIP-1α. Unbound ligand was removed by washing the cells, and bound ligand was determined by quantifying radioactive counts. Cells that were incubated without any organic compound gave total counts; non-specific binding was determined by incubating the cells with unlabeled ligand and labeled ligand. Percent inhibition was determined by the equation:
% inhibition=1−[(sample cpm)−(nonspecific cpm)]/[(total cpm)−(nonspecific cpm)]×100
To ascertain a candidate compound's affinity for CCR1 as well as confirm its ability to inhibit ligand binding, inhibitory activity was titered over 1×10^−8 to 1×10^−4 M range of compound concentration. The assay was essentially the same as for the CLIP screens, except the amount of compound was varied; cell number and ligand concentration were held constant. Only those compounds that were commercially available at the time of the experiments were titered. Of the 22 candidates identified, the following 16 were subjected to dose response experiments: CCX-3343, CCX-1057, CCX-1307, CCX-1513, CCX-238, CCX-3345, CCX-3493, CCX-4425, CCX-4462, CCX-4682, CCX-469, CCX-5062, CCX-5119, CCX-541, CCX-6019 and CCX-6530.

[4] = CCR1-293 cells, compound titered 1×10^−8 to 1×10^−4 M, * = partially blocked MIP-1α binding at the highest tested concentration, read-out: IC50 (Inhibition Constant; μM), CCR1-MIP-1α binding
[5] = CCR1-NSO cells, compound titered 1×10^−8 to 1×10^−4 M, read-out: IC50 (Inhibition Constant; μM), CCR1-MIP-1α binding
[6] = compound titered 1×10^−8 to 1×10^−4 M, cells not given
[7] = dose response, cells not given, read-out: CCR1 affinity (MIP-1α binding)

In the case of `O=C1NCCCCC1N(Cc1ccccc1F)C(=O)C(c1ccccc1)c1ccccc1` (stereo not shown) [CCX-469], the “Bradykinin: calcium pulse” value [1] is reported as “+”, the “MIP-1α: calcium pulse” value (CCR1 [2]) is reported as “−” and the “Comments (inhibition of calcium signaling)” value (CCR1 [2]) is reported as “Clear and specific”. For the same compound, the “Inhibition of CCR1 calcium signaling, result in words” value (“Inhibition of CCR1 calcium signaling” for short) (CCR1 [2]) was “able to significantly and specifically inhibit signaling from CCR1”, the IC50 (CCR1 [3]; [4]) was 2 µM and the IC50 (CCR1 [3]; [5]) was 0.6 µM.
In the case of `Cc1ccc(C(/C(Cl)=C(\Cl)C(=O)O)c2ccc(C)cc2C)c(C)c1` [CCX-541], the “Bradykinin: calcium pulse” value [1] is reported as “n.s”, the “MIP-1α: calcium pulse” value (CCR1 [2]) is reported as “n.s” and the “Comments (inhibition of calcium signaling)” value (CCR1 [2]) is reported as “Calcium levels increased non-”. For the same compound, the “Inhibition of CCR1 calcium signaling” value (CCR1 [2]) was “non-specific effects on calcium levels” and the IC50 (CCR1 [3]; [5]) was 0.4 µM.
For `O=C(C[n+]1ccc(-c2ccccc2)cc1)Nc1ccc([N+](=O)[O-])cc1` [CCX-1057], the IC50 (CCR1 [3]; [4]) was 2 µM.
With `c1ccc(C2C3=C(Nc4nc5ccccc5n42)c2ccccc2CCC3)cc1` (stereo not shown) [CCX-1080] the IC50 (CCR1 [3]; [4]) was 2 µM.
In the case of `O=C(c1ccc(Cl)c(Cl)c1)C12CN3CN(CN(C3)C1)C2` [CCX-1307], the IC50 (CCR1 [3]; [4]) is reported as 2 µM.
`O=C(O)c1ccc2c(c1)C1C=CCC1C(C(=O)O)N2` (stereo not shown) [CCX-1959] was tested, and the IC50 (CCR1 [3]; [5]) was 0.36 µM.
Work on `CC[n+]1c(/C=C/C=C2/N(C)c3ccccc3C2(C)C)ccc2c1c1cc(Br)ccc1n2C` [CCX-2324] yielded an IC50 (CCR1 [3]; [4]) of 2 µM.
With `CC1CCC(C(C)C)C(OCC(O)CN2CCN(c3ccc(F)cc3)CC2)C1` (stereo not shown) [CCX-3343] the “Dose-response inhibition of MIP-1α binding, result in words” value (shortened to “Dose-response inhibition”) (CCR1 [3]; [6]) was “failed to completely inhibit MIP-1α binding at the highest tested concentration” and the IC50 (CCR1 [3]; [7]) was roughly 2 µM.
`CC1CCC(C(C)C)C(OCC(O)CN2CCC(Cc3ccccc3)CC2)C1` (stereo not shown) [CCX-3345] was tested, and the “Dose-response inhibition” value (CCR1 [3]; [6]) was “failed to completely inhibit MIP-1α binding at the highest tested concentration” and the IC50 (CCR1 [3]; [7]) was roughly 2 µM.
For `S=c1[nH]nc(-c2ccc(Cl)cc2)n1-c1cccnc1` [CCX-3493], the “Bradykinin: calcium pulse” value [1] was “+”, the “MIP-1α: calcium pulse” value (CCR1 [2]) was “+” and the “Comments (inhibition of calcium signaling)” value (CCR1 [2]) was “No inhibition”. For the same compound, the “Inhibition of CCR1 calcium signaling” value (CCR1 [2]) was “did not affect signaling, whether MIP-1α or bradykinin induced”, the IC50 (CCR1 [3]; [4]) was 18 µM and the IC50 (CCR1 [3]; [5]) was 1.7 µM.
`O=C(O)C1=C(Sc2ccc(Cl)cc2)CSC1` [CCX-4682] showed an IC50 (CCR1 [3]; [5]) of 44 µM.
For `CC(=O)C1=C(O)C(=O)N(c2ccc(Br)cc2)C1c1ccc(F)cc1` (stereo not shown) [CCX-5062], the “Dose-response inhibition” value (CCR1 [3]; [6]) was “failed to completely inhibit MIP-1α binding at the highest tested concentration” and the IC50 (CCR1 [3]; [7]) was roughly 2 µM.
With `COC(=O)c1cc(C#N)c(Sc2c([N+](=O)[O-])cc(C(F)(F)F)cc2[N+](=O)[O-])nc1C(OC)OC` [CCX-5119] the IC50 (CCR1 [3]; read-out: IC50 (Inhibition Constant; μM), CCR1-MIP-1α binding, CCR1-293 cells, compound titered 1×10^−8 to 1×10^−4 M, * = partially blocked MIP-1α binding at the highest tested concentration) was 45 µM.
In the case of `O=C(NN(Cc1c(F)cccc1Cl)c1ccccc1)C(Cl)(Cl)Cl` [CCX-6019], the IC50 (CCR1 [3]; [5]) is reported as 25 µM.
